The values below come from US8592456B2 (4SC Discovery GmbH, priority 2011, dated 2013).

Some results are limits rather than exact numbers.

In the assay the test system is PBMC (T cell proliferation). Kind of assay: T cell proliferation assay, PHA-stimulated human PBMC (BrdU ELISA). Type of assay: cell-based. Particulars: human PBMC, 2 μg/ml PHA, 48 hours, BrdU; read-out: D: IC50 (Tcell proliferation). As for the experimental part: Cell proliferation was analysed using the BrdU based cell proliferation ELISA from Roche (Mannheim, Germany) according to the manufacturer's instructions.
T Cell Proliferation Assay
Peripheral blood mononuclear cells (PBMC) from healthy human donors were isolated by centrifugation over Ficoll-Hypaque (Sigma-Aldrich, Germany) according to manufacturer's instructions. Purified PBMC were washed twice with PBS and resuspended in RPMI1640 culture medium supplemented with 10% dialyzed heat inactivated fetal calf serum, 1.5 mM L-glutamine, 100 U penicillin/ml, and […] (all from PAN Biotech, Aidenbach, Germany). For stimulation, PBMC were seeded at 1×10^5 cells/well, activated with 2 μg/ml phytohaemagglutinin (PHA, Sigma) and incubated with the test compound. After 48 hours proliferation was measured using the BrdU based cell proliferation ELISA from Roche (Mannheim, Germany) according to the manual.
For orientation: Incorporation of labelled thymidine or its analogues reports DNA synthesis.
`COC(=O)c1c(-c2c(F)cccc2Cl)noc1-c1cnn(-c2ccccc2F)c1C(F)(F)F` [Example 1, methyl 3-(2-chloro-6-fluorophenyl)-5-(1-(2-fluorophenyl)-5-(trifluoromethyl)-1H-pyrazol-4-yl)isoxazole-4-carboxylate]: the IC50 lay within 0.01 to 0.1 µM. Consider `COC(=O)c1c(-c2c(F)cccc2Cl)noc1-c1cnn(-c2ccc(F)cc2)c1C(F)(F)F` [Example 3, methyl 3-(2-chloro-6-fluorophenyl)-5-(1-(4-fluorophenyl)-5-(trifluoromethyl)-1H-pyrazol-4-yl)isoxazole-4-carboxylate], for which the IC50 was in the range of 0.01 to 0.1 µM. Turning to `COC(=O)c1c(-c2c(F)cccc2Cl)noc1-c1cnn(-c2cccc(Cl)c2Cl)c1C(F)(F)F` [Example 4, methyl 3-(2-chloro-6-fluorophenyl)-5-(1-(2,3-dichlorophenyl)-5-(trifluoromethyl)-1H-pyrazol-4-yl)isoxazole-4-carboxylate], the IC50 lay within 1 to 10 µM.

As to `COC(=O)c1c(-c2c(F)cccc2Cl)noc1-c1cnn(-c2cccc(F)c2)c1C(F)(F)F` [Example 5, methyl 3-(2-chloro-6-fluorophenyl)-5-(1-(3-fluorophenyl)-5-(trifluoromethyl)-1H-pyrazol-4-yl)isoxazole-4-carboxylate], the IC50 was under 0.01 µM. In the case of `CCOC(=O)c1c(-c2onc(-c3c(F)cccc3Cl)c2C(=O)OC)cnn1-c1ccc(Cl)cc1Cl` [Example 6, methyl 3-(2-chloro-6-fluorophenyl)-5-(1-(2,4-dichlorophenyl)-5-(ethoxycarbonyl)-1H-pyrazol-4-yl)isoxazole-4-carboxylate] it was 1 to 10 µM. Regarding `COC(=O)c1c(-c2c(F)cccc2Cl)noc1-c1cnn(-c2ccc(Cl)cc2Cl)c1C(F)(F)F` [Example 7, methyl 3-(2-chloro-6-fluorophenyl)-5-(1-(2,4-dichlorophenyl)-5-(trifluoromethyl)-1H-pyrazol-4-yl)isoxazole-4-carboxylate], the IC50 fell in the range of 1 to 10 µM.

In the case of `CCOC(=O)c1c(-c2onc(-c3c(F)cccc3Cl)c2C(=O)OC)cnn1-c1cccc(F)c1` [Example 8, methyl 3-(2-chloro-6-fluorophenyl)-5-(5-(ethoxycarbonyl)-1-(3-fluorophenyl)-1H-pyrazol-4-yl)isoxazole-4-carboxylate], the IC50 lay within 0.1 to 1 µM. Turning to `CCOC(=O)c1c(-c2onc(-c3c(F)cccc3Cl)c2C(=O)OC)cnn1-c1cccc(Cl)c1Cl` [Example 9, methyl 3-(2-chloro-6-fluorophenyl)-5-(1-(2,3-dichlorophenyl)-5-(ethoxycarbonyl)-1H-pyrazol-4-yl)isoxazole-4-carboxylate], the IC50 fell in the range of 1 to 10 µM. As for `CCOC(=O)c1c(-c2onc(-c3c(F)cccc3Cl)c2C(=O)OC)cnn1-c1cccc(Cl)c1` [Example 10, methyl 3-(2-chloro-6-fluorophenyl)-5-(1-(3-chlorophenyl)-5-(ethoxycarbonyl)-1H-pyrazol-4-yl)isoxazole-4-carboxylate], the IC50 is 0.01 to 0.1 µM.

In the case of `COC(=O)c1c(-c2c(F)cccc2Cl)noc1-c1cnn(-c2cccc(Cl)c2)c1C(F)(F)F` [Example 11, methyl 3-(2-chloro-6-fluorophenyl)-5-(1-(3-chlorophenyl)-5-(trifluoromethyl)-1H-pyrazol-4-yl)isoxazole-4-carboxylate], the IC50 is under 0.01 µM. As to `COC(=O)c1c(-c2c(F)cccc2Cl)noc1-c1cnn(-c2cccc(C#N)c2)c1C(F)(F)F` [Example 12, methyl 3-(2-chloro-6-fluorophenyl)-5-(1-(3-cyanophenyl)-5-(trifluoromethyl)-1H-pyrazol-4-yl)isoxazole-4-carboxylate], the IC50 was 0.01 to 0.1 µM. Turning to `CCOC(=O)c1c(-c2onc(-c3c(F)cccc3Cl)c2C(=O)OC)cnn1-c1cccc(C#N)c1` [Example 13, methyl 3-(2-chloro-6-fluorophenyl)-5-(1-(3-cyanophenyl)-5-(ethoxycarbonyl)-1H-pyrazol-4-yl)isoxazole-4-carboxylate], the IC50 lay in the range of 0.1 to 1 µM. In the case of `O=C(c1c(-c2c(F)cccc2Cl)noc1-c1cnn(-c2ccccc2F)c1C(F)(F)F)N1CCOCC1` [Example 16, (3-(2-chloro-6-fluorophenyl)-5-(1-(2-fluorophenyl)-5-(trifluoromethyl)-1H-pyrazol-4-yl)isoxazol-4-yl)(morpholino)methanone] it was 1 to 10 µM; in that of `CN1CCN(C(=O)c2c(-c3c(F)cccc3Cl)noc2-c2cnn(-c3ccccc3F)c2C(F)(F)F)CC1` [Example 17, (3-(2-chloro-6-fluorophenyl)-5-(1-(2-fluorophenyl)-5-(trifluoromethyl)-1H-pyrazol-4-yl)isoxazol-4-yl)(4-methylpiperazin-1-yl)methanone], 1 to 10 µM; in that of `O=C(NC1CCCCC1)c1c(-c2c(F)cccc2Cl)noc1-c1cnn(-c2ccccc2F)c1C(F)(F)F` [Example 18, 3-(2-chloro-6-fluorophenyl)-N-cyclohexyl-5-(1-(2-fluorophenyl)-5-(trifluoromethyl)-1H-pyrazol-4-yl)isoxazole-4-carboxamide], 1 to 10 µM. Under `CNC(=O)c1c(-c2c(F)cccc2Cl)noc1-c1cnn(-c2ccccc2F)c1C(F)(F)F` [Example 19, 3-(2-chloro-6-fluorophenyl)-5-(1-(2-fluorophenyl)-5-(trifluoromethyl)-1H-pyrazol-4-yl)-N-methylisoxazole-4-carboxamide] stands 1 to 10 µM; under `O=C(c1c(-c2c(F)cccc2Cl)noc1-c1cnn(-c2ccccc2F)c1C(F)(F)F)N1CCCCC1` [Example 21, (3-(2-chloro-6-fluorophenyl)-5-(1-(2-fluorophenyl)-5-(trifluoromethyl)-1H-pyrazol-4-yl)isoxazol-4-yl)(piperidin-1-yl)methanone], 0.01 to 0.1 µM; under `O=C(NCc1ccccc1C(F)(F)F)c1c(-c2c(F)cccc2Cl)noc1-c1cnn(-c2ccccc2F)c1C(F)(F)F` [Example 23, 3-(2-chloro-6-fluorophenyl)-5-(1-(2-fluorophenyl)-5-(trifluoromethyl)-1H-pyrazol-4-yl)-N-(2-(trifluoromethyl)benzyl)isoxazole-4-carboxamide], 1 to 10 µM.

`O=C(c1c(-c2c(F)cccc2Cl)noc1-c1cnn(-c2ccccc2F)c1C(F)(F)F)N1CCN(Cc2cccc(Cl)c2)CC1` [Example 24, (3-(2-chloro-6-fluorophenyl)-5-(1-(2-fluorophenyl)-5-(trifluoromethyl)-1H-pyrazol-4-yl)isoxazol-4-yl)(4-(3-chlorobenzyl)piperazin-1-yl)methanone]: the IC50 was in the range of 0.1 to 1 µM. In the case of `CCOC(=O)c1c(-c2onc(-c3c(F)cccc3Cl)c2C(=O)OC)cnn1-c1ccc(F)cc1` [Example 26, methyl 3-(2-chloro-6-fluorophenyl)-5-(5-(ethoxycarbonyl)-1-(4-fluorophenyl)-1H-pyrazol-4-yl)isoxazole-4-carboxylate] it was 1 to 10 µM; in that of `COC(=O)c1c(-c2c(F)cccc2Cl)noc1-c1cnn(CC(C)C)c1C(F)(F)F` [Example 28], 0.1 to 1 µM; in that of `CCOC(=O)c1c(-c2onc(-c3c(F)cccc3Cl)c2C(=O)OC)cnn1CC(C)C` [Example 29], 1 to 10 µM.

As for `CNC(=O)c1c(-c2c(F)cccc2Cl)noc1-c1cnn(-c2cccc(Cl)c2)c1C(F)(F)F` [Example 32, 3-(2-chloro-6-fluorophenyl)-5-(1-(3-chlorophenyl)-5-(trifluoromethyl)-1H-pyrazol-4-yl)-N-methylisoxazole-4-carboxamide], the IC50 lay within 0.01 to 0.1 µM. As for `COC(=O)c1c(-c2c(F)cccc2Cl)noc1-c1cnn(-c2ccc(OC(F)(F)F)cc2)c1C(F)(F)F` [Example 33, methyl 3-(2-chloro-6-fluorophenyl)-5-(1-(4-(trifluoromethoxy)phenyl)-5-(trifluoromethyl)-1H-pyrazol-4-yl)isoxazole-4-carboxylate], the IC50 was in the range of 1 to 10 µM. Consider `CCOC(=O)c1c(-c2onc(-c3c(F)cccc3Cl)c2C(=O)OC)cnn1-c1ccccc1` [Example 34, methyl 3-(2-chloro-6-fluorophenyl)-5-(5-(ethoxycarbonyl)-1-phenyl-1Hpyrazol-4-yl)isoxazole-4-carboxylate], for which the IC50 was in the range of 1 to 10 µM. As for `CCOC(=O)c1c(-c2onc(-c3c(F)cccc3Cl)c2C(=O)OC)cnn1-c1ccc(F)cc1F` [Example 35, methyl 3-(2-chloro-6-fluorophenyl)-5-(1-(2,4-difluorophenyl)-5-(ethoxycarbonyl)-1H-pyrazol-4-yl)isoxazole-4-carboxylate], the IC50 is 0.1 to 1 µM. Under `CCOC(=O)c1c(-c2onc(-c3c(F)cccc3Cl)c2C(=O)OC)cnn1-c1cc(F)cc(F)c1` [Example 39, methyl 3-(2-chloro-6-fluorophenyl)-5-(1-(3,5-difluorophenyl)-5-(ethoxycarbonyl)-1-H-pyrazol-4-yl)isoxazole-4-carboxylate] stands 1 to 10 µM.

On to `CCOC(=O)c1c(-c2onc(-c3c(F)cccc3Cl)c2C(=O)OC)cnn1-c1ccccc1F` [Example 41, methyl 3-(2-chloro-6-phenyl)-5-(5-(ethoxycarbonyl)-1-(2-fluorophenyl)-1H-pyrazol-4-yl)isoxazole-4-carboxylate], for which the IC50 lay within 0.1 to 1 µM. Consider `CCOC(=O)c1c(-c2c(F)cccc2Cl)noc1-c1cnn(-c2ccccc2F)c1C(F)(F)F` [Example 42, Ethyl 3-(2-chloro-6-fluorophenyl)-5-[1-(2-fluorophenyl)-5-(trifluoromethyl)-1H-pyrazol-4-yl]isoxazole-4-carboxylate], for which the IC50 is 0.01 to 0.1 µM. Under `CC(C)OC(=O)c1c(-c2c(F)cccc2Cl)noc1-c1cnn(-c2ccccc2F)c1C(F)(F)F` [Example 43, i-Propyl 3-(2-chloro-6-fluorophenyl)-5-[1-(2-fluorophenyl)-5-(trifluoromethyl)-1H-pyrazol-4-yl]isoxazole-4-carboxylate] stands 0.01 to 0.1 µM.
